In patent US12240840B2, “Amide-substituted heterocyclic compounds for the treatment of conditions related to the modulation of IL-12, IL-23 and/or IFN-alpha” (BRISTOL-MYERS SQUIBB COMPANY, priority 2018, dated 2025) one finds IC50 data, which are given here for 39 compounds.

The test system of this experiment is IFNα-induced pSTAT5 (pY694) in CD3 positive cells of human whole blood. Nature of the experiment: IFNα-Induced STAT Phosphorylation in Human Whole Blood. Format: cell-based. Particulars: Homo sapiens, 1 h compound incubation, 1000 U/mL recombinant human IFNα A/D for 15 min, pSTAT5 in CD3 positive population, read-out: Human WB IFNα-Induced Stat Phosph. (IC50). The method in brief:
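Read-out is median fluorescence intensity of pSTAT5 (pY694) in the CD3-positive gate, by flow cytometry after fix/lyse and permeabilization. Before that, whole human blood anticoagulated with EDTA or ACD-A received compound for an hour and 1000 U/mL IFNα A/D for 15 min.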

A word on the IC50: it is the concentration needed to halve the response being measured.

Structures are written as SMILES.

With `[2H]C([2H])([2H])NC(=O)c1nnc(NC(=O)C2CC2)cc1Nc1cccc(-c2cnn(CCNC(=O)C3(C#N)CC3)n2)c1OC` [Example 437], the IC50 is 2.41 µM.

`[2H]C([2H])([2H])NC(=O)c1nnc(Nc2cc(C)n(C)n2)cc1Nc1cc(F)cc(-c2cc(C(=O)N(C)C)n(C)n2)c1OC` [Example 548]: the IC50 is 0.17 µM.

With `[2H]C([2H])([2H])NC(=O)c1nnc(NC(=O)C2CC2)cc1Nc1cccc(-c2nc(CCO)no2)c1OC` [Example 225], the IC50 was 0.35 µM.

For the compound `[2H]C([2H])([2H])NC(=O)c1nnc(Nc2cc(C)n(C)n2)cc1Nc1cc(F)cc(-c2cc(C(C)(C)O)n(C)n2)c1OC` [Example 546], the IC50 amounted to 0.11 µM.

In the case of `[2H]C([2H])([2H])NC(=O)c1nnc(NC(=O)C2CC2)cc1Nc1cccc(-c2ncc(C(=O)N(C)CC)s2)c1OC` [Example 291], the IC50 is 0.11 µM.

`[2H]C([2H])([2H])NC(=O)c1nnc(Nc2ccc(C)nn2)cc1Nc1cccc(-c2ncc(C(C)O)s2)c1OC` (stereo not drawn) [Example 392]: the IC50 stood at 0.023 µM.

As for `[2H]C([2H])([2H])NC(=O)c1nnc(NC(=O)C2CC2)cc1Nc1cccc(-c2ncc(C(=O)N3CC(=O)NC(=O)C3)s2)c1OC` [Example 331], the IC50 was 0.56 µM.

`COc1c(Nc2cc(NC(=O)C3CC3)nnc2C(N)=O)cccc1-c1noc(CC(=O)N2CCOCC2)n1` [Example 36]: the IC50 came to 0.03 µM.

Consider `[2H]C([2H])([2H])NC(=O)c1nnc(NC(=O)C2CC2)cc1Nc1cccc(-c2noc(C(CCC)C(=O)NCCOC)n2)c1OC` (stereo not drawn) [Example 43], for which the IC50 amounted to 0.17 µM.

In the case of `[2H]C([2H])([2H])NC(=O)c1nnc(NC(=O)C2CC2)cc1Nc1cccc(-c2nc(CN3CC4CN(C(=O)OC)CC4C3)no2)c1OC` (stereo not drawn) [Example 234], the IC50 worked out at 0.3 µM.

On to `[2H]C([2H])([2H])NC(=O)c1nnc(NC(=O)C2CC2)cc1Nc1cccc(-c2cnn(CCN)c2)c1OC` [Example 557], for which the IC50 is 0.72 µM.

As to `[2H]C([2H])([2H])NC(=O)c1nnc(NC(=O)C2CC2)cc1Nc1cccc(-c2noc(CN3CCN(C(=O)OC)CC3)n2)c1OC` [Example 14], the IC50 came to 0.05 µM.

With `COc1c(Nc2cc(NC(=O)C3CC3)nnc2C(N)=O)cccc1-c1noc(CN2CCOCC2)n1` [Example 8], the IC50 came out at 0.021 µM.

Turning to `[2H]C([2H])([2H])NC(=O)c1nnc(NC(=O)C2CC2)cc1Nc1cccc(-c2ncc(C(=O)NCC#N)s2)c1OC` [Example 300], the IC50 came to 0.33 µM.

For `[2H]C([2H])([2H])NC(=O)c1cnc(NC(=O)C2CC2)cc1Nc1cccc(-c2noc(CCOC)n2)c1OC` [Example 90], the IC50 amounted to 0.06 µM.

Take `[2H]C([2H])([2H])NC(=O)c1nnc(NC(=O)C2CC2)cc1Nc1cccc(-c2nc(CN3CCC(C)CC3)no2)c1OC` [Example 211]: the IC50 was 0.44 µM.

In the case of `[2H]C([2H])([2H])NC(=O)c1nnc(NC(=O)C2CC2)cc1Nc1cccc(-c2cc(C(=O)N3CCN(C(=O)OC)CC3)n(C)n2)c1OC` [Example 494], the IC50 turned out to be 0.25 µM.

For `[2H]C([2H])([2H])NC(=O)c1nnc(NC(=O)C2CC2)cc1Nc1cccc(-c2ncc(C(=O)N3C[C@@H](C)O[C@@H](C)C3)s2)c1OC` [Example 275], the half-maximal inhibitory concentration (IC50) turned out to be 0.15 µM.

Take `[2H]C([2H])([2H])NC(=O)c1nnc(NC(=O)C2CC2)cc1Nc1cccc(-c2nc(CN3CCN(S(C)(=O)=O)CC3)no2)c1OC` [Example 128]: the 50% inhibitory concentration (IC50) came out at 0.03 µM.

As for `[2H]C([2H])([2H])NC(=O)c1nnc(NC(=O)C2CC2)cc1Nc1cccc(-c2cc(C(=O)NC(COC)COC)n(C)n2)c1OC` [Example 540], the 50% inhibitory concentration (IC50) was found to be 0.46 µM.

With `[2H]C([2H])([2H])NC(=O)c1nnc(NC(=O)C2CC2)cc1Nc1cccc(-c2ncc(C(=O)NCC(C)CN(C)C)s2)c1OC` (stereo not drawn) [Example 352], the IC50 amounted to 0.07 µM.

`COc1c(Nc2cc(NC(=O)C3CC3)nnc2C(N)=O)cccc1-c1ncc(C(=O)NCC(O)CO)o1` (stereo not drawn) [Example 420]: the half-inhibitory concentration (IC50) was found to be 0.22 µM.

Consider `CCS(=O)(=O)NCc1nc(-c2cccc(Nc3cc(NC(=O)C4CC4)nnc3C(N)=O)c2OC)no1` [Example 48], for which the IC50 amounted to 0.025 µM.

With `[2H]C([2H])([2H])NC(=O)c1nnc(NC(=O)C2CC2)cc1Nc1cccc(-c2nc(C)c(C(=O)NCCC3CCCN3C)s2)c1OC` (stereo not drawn) [Example 355], the IC50 is 0.38 µM.

With `COc1c(Nc2cc(NC(=O)C3CC3)ncc2C(N)=O)cccc1-c1nc(CN2CCOCC2)no1` [Example 576, 6-(cyclopropanecarboxamido)-4-((2-methoxy-3-(3-(morpholinomethyl)-1,2,4-oxadiazol-5-yl)phenyl)amino)nicotinamide], the IC50 is 0.013 µM.

On to `[2H]C([2H])([2H])NC(=O)c1nnc(NC(=O)C2CC2)cc1Nc1cccc(-c2csc(C(=O)NCCOC)n2)c1OC` [Example 566], for which the IC50 amounted to 0.68 µM.

Consider `[2H]C([2H])([2H])NC(=O)c1nnc(NC(=O)C2CC2)cc1Nc1cccc(-c2cc(C(=O)NCCCN(C)C)n(C)n2)c1OC` [Example 537], for which the IC50 amounted to 0.7 µM.

With `[2H]C([2H])([2H])NC(=O)c1nnc(NC(=O)C2CC2)cc1Nc1cccc(-n2cc(CN3CCS(=O)(=O)CC3)nn2)c1OC` [Example 1, 6-(cyclopropanecarboxamido)-4-((3-(4-((1,1-dioxidothiomorpholino)methyl)-1H-1,2,3-triazol-1-yl)-2-methoxyphenyl)amino)-N-(trideuteromethyl)pyridazine-3-carboxamide], the IC50 amounted to 2.8 µM.

Turning to `[2H]C([2H])([2H])NC(=O)c1nnc(NC(=O)C2CC2)cc1Nc1cccc(-c2ncc(C(=O)NC(C)(C)C)s2)c1OC` [Example 309], the IC50 was > 10 µM.

`[2H]C([2H])([2H])NC(=O)c1nnc(NC(=O)C2CC2)cc1Nc1cc(F)cc(-c2cc(C(=O)N(C)C(C)C)n(C)n2)c1OC` [Example 506]: the IC50 was found to be 0.25 µM.

On to `[2H]C([2H])([2H])NC(=O)c1nnc(NC(=O)C2CC2)cc1Nc1cccc(-c2ncc(C(=O)N3CCN(C(C)C)CC3)s2)c1OC` [Example 295], for which the IC50 stood at 0.06 µM.

With `[2H]C([2H])([2H])NC(=O)c1nnc(NC(=O)C2CC2)cc1Nc1cccc(-c2ncc(C(=O)N3CCN(S(=O)(=O)CC)CC3)s2)c1OC` [Example 242], the IC50 is 0.021 µM.

As for `[2H]C([2H])([2H])NC(=O)c1nnc(Nc2ccc(OC)nn2)cc1Nc1cccc(-c2ncc(CNS(C)(=O)=O)s2)c1OC` [Example 390], the IC50 amounted to 0.24 µM.

In the case of `[2H]C([2H])([2H])NC(=O)c1nnc(NC(=O)C2CC2)cc1Nc1cccc(-c2ncc(C(=O)N3CCC3C)s2)c1OC` (stereo not drawn) [Example 328], the IC50 was 0.16 µM.

Turning to `[2H]C([2H])([2H])NC(=O)c1nnc(NC(=O)C2CC2)cc1Nc1cccc(-c2nc(C3(NC(C)=O)CC3)no2)c1OC` [Example 165], the IC50 amounted to 0.53 µM.

As for `[2H]C([2H])([2H])NC(=O)c1nnc(NC(=O)C2CC2)cc1Nc1cccc(-c2nc(CN3CCNCC3)no2)c1OC` [Example 126], the IC50 worked out at 0.63 µM.

In the case of `[2H]C([2H])([2H])NC(=O)c1nnc(NC(=O)C2CC2)cc1Nc1cccc(-c2nc(C)c(C(=O)NCCOC)s2)c1OC` [Example 366], the IC50 is 0.51 µM.

On to `COc1c(Nc2cc(NC(=O)C3CC3)nnc2C(N)=O)cccc1-c1ncc(CC(=O)N(C)C)s1` [Example 243], for which the 50% inhibitory concentration (IC50) stood at 0.09 µM.

With `COc1c(Nc2cc(NC(=O)C3CC3)nnc2C(N)=O)cccc1-c1noc(CN(C)S(C)(=O)=O)n1` [Example 44], the IC50 came to 0.009 µM.
